Test results: US11371097B2, “Articles for diagnosis of liver fibrosis” (THE GOVERNMENT OF THE UNITED STATES, as represented by THE …, priority 2015, dated 2022)
Entries after “also recorded” stand apart in the source; their conditions may differ.

Experiments:
[1] = tested on: Tgfb1; assay: qPCR of liver RNA: Tgfb1; assay type: in vivo, Male Sprague-Dawley rats
Method: (§1) Working on dry ice, a portion (−10 mg) of flash-frozen liver was cut from each sample and transferred to a clean, labeled tube. Total RNA was then isolated using Qiagen's miRNeasy 96 kit (Qiagen, Valencia, Calif.) following manufacturer's instructions with a final elution volume of −150 μL (2×75 μL). The quality and quantity of RNA samples were evaluated with a 2100 Bioanalyzer (Agilent Technologies, Santa Clara, Calif.), using the Agilent RNA 6000 Nano Reagents and a multiwell NanoDrop 8000 spectrophotometer (Thermo Fisher Scientific, Waltham, Mass.).
(§2) Using 1 μg RNA input, cDNA was generated using a QuantiTect Reverse Transcription kit (Qiagen, Valencia, Calif.) following manufacturer's instructions. Applied Biosystems SYBR Green Master Mix was used in a 20 μL qPCR reaction with 2 μL of cDNA template and a 2.tM final concentration of each primer. A total of five genes were targeted (Gapdh, Actb, Timp1, Tgfbl, and Psma5), two of which served as the endogenous controls (Gapdh and Actb). An Applied Biosystems 7500 Real-Time PCR System (Applied Biosystems, Foster City, Calif.) was used for thermal cycling and fluorescence detection using the default settings for Quantitation-Comparative CT with SYBR® . . . Green Reagents which uses the following scheme: 95° C. for 10 minutes followed by 40 cycles of: 95° C. for 15 seconds, 60° C. for 1 minute, and a fluorescence signal read. Al! primers were obtained from Integrated DNA Technology's PrimeTime qPCR primer library (Integrated DNA Technologies, Coralville, Iowa).
Data was imported into GraphPad Prism (GraphPad Software, Inc.; LaJolla, Calif.) for analysis. A nonparametric Kruskal-Wallis analysis of variance by ranks with post hoc […] multiple comparison test was used to determine statistical difference among dose groups. A one sample t-test compared to a theoretical mean of 1.0 fold change was used to determine difference from control for each dose group. A p-value<0.05 was used as a cutoff for statistical significance.

[2] = tested on: Timp1; assay: qPCR of liver RNA: Timp1; assay type: in vivo, Male Sprague-Dawley rats; details: across dose groups, vs control
Method: as §1
as §2, with “Al! primers were obtained from Integrated DNA Technology's PrimeTime qPCR primer library (Integrated DNA Technologies, Coralville, Iowa).” left out

[3] = tested on: tissue, plasma, or serum protein abundance; assay: Global semiquantitative proteomics (iTRAQ mass spectrometry) of tissue, plasma, serum; assay type: in vivo, Rattus norvegicus; details: for Differentially expressed proteins: global proteomics
Excerpt: Global semiquantitative proteomics analysis (iTRAQ analysis) identified protein products of a subset of the 24 genes differentially expressed in liver tissue specific for the fibrosis phenotype (Table 6). Six protein products were identified in plasma, four in the serum, and two in the liver tissue (Table 6). All protein products were identified in the contrast analysis as specific for the fibrosis phenotype. The direction of the changes in protein products matched the transcriptomics data with the exception of insulin-like growth factor binding protein complex acid labile subunit precursor. […] (Ippolito D L, et. al. Gene expression patterns associated with histopathology in toxic liver fibrosis. Tox Sci. 2015 Sep. 22. pii: kfv214)
(§3) Serum miRNA expression was measured by next-generation sequencing. Gene expression in the liver was determined by microarray, and global serum and liver protein expression was determined by semi-quantitative mass spectrometry. […] Transcriptomic analysis identified 506 differentially expressed genes in the liver. 13 miRNAs were predicted to target 100 unique differentially expressed genes in the liver. Global proteomics analysis identified 131 differentially expressed proteins in the liver and 53 in the serum. Of these, 7 miRNAs targeted 13 unique genes coding for differentially expressed liver tissue proteins and 3 miRNAs targeted 3 unique genes coding for serum proteins. These 16 differentially expressed miRNAs in the serum are predicted to target and potentially regulate gene expression contributing to the progression of toxic liver injury. (Fermenter M G et al. Serum miRNA as prognostic indicators of toxic liver injury. Submitted abstract in October 2015 for presentation at the Society of Toxicology in March 2016 (New Orleans, La.)).

[4] = tested on: serum miRNA; assay: Serum miRNA expression by next-generation sequencing; assay type: in vivo, rats; details: FDR<0.05
Method: as §3

[5] = tested on: liver gene expression; assay: Liver gene expression by microarray (transcriptomic analysis); assay type: in vivo, rats
Method: as §3

[6] = tested on: liver; details: 5-7 days oral administration or intraperitoneal injection, various doses; cited from earlier work
[7] = tested on: Psma5; assay: qPCR of liver RNA: Psma5; assay type: in vivo, Male Sprague-Dawley rats; details: high-dose group with vacuolation pathology; p<0.05
Method: as §1
as §2, with “Al! primers were obtained from Integrated DNA Technology's PrimeTime qPCR primer library (Integrated DNA Technologies, Coralville, Iowa).” left out

[8] = Observation of plasma (lipemia) after dosing; assay type: in vivo, Male Sprague-Dawley rats; details: all doses
Method: Animals were observed cageside one hour following daily dose administration, then 1-2 times per day during dosing regimens. Body weights were measured daily prior to dose administration, and prior to euthanasia. Twenty-four hours after the final dose administration, animals were anesthetized with isoflurane then euthanized by exsanguination followed by decapitation. Livers were harvested at necropsy and weighed to within 0.1 g. One half of the left lobe of the liver was fixed in 10% formalin. The remaining half of the left lobe of the liver was flash frozen in liquid nitrogen, then stored below −70° C. Liver specimens were frozen in less than three minutes from time of death.

[9] = tested on: 67 genes on the fibrosis gene panel; details: rat, in vivo
[10] = liver, across dose groups, vs control
[11] = plasma, 4,4′-methylenedianiline/vehicle, Group 2
[12] = serum, 4,4′-methylenedianiline/vehicle, Group 2
[13] = tissue, 4,4′-methylenedianiline/vehicle, Group 2

Nc1ccc(Cc2ccc(N)cc2)cc1 [4,4′-methylenedianiline]
Tgfb1 gene expression by qPCR [1, 10]: showed a dose-dependent increase; also recorded: dose-dependent increases in gene expression | Timp1 gene expression by qPCR [2]: showed a dose-dependent increase; also recorded: dose-dependent increases in gene expression | Differentially expressed proteins ([3]; liver): 131 | Fold change alpha-2-macroglobulin precursor [3, 11]: 2.2 Fold change | Fold change ceruloplasmin isoform 1 precursor [3, 11]: 2.5 Fold change | Fold change fibronectin precursor [3, 11]: −1.3 Fold change | Fold change insulin-like growth factor-binding protein complex acid labile subunit precursor [3, 11]: −1.4 Fold change | Fold change vitronectin precursor [3, 11]: −1.6 Fold change | Differentially expressed proteins ([3]; serum): 53 | Fold change alpha-2-macroglobulin precursor [3, 12]: 2.4 Fold change | Fold change ceruloplasmin isoform 1 precursor [3, 12]: 2.4 Fold change | Fold change complement C1q subcomponent subunit B precursor [3, 12]: 1.6 Fold change | Fold change vitronectin precursor [3, 12]: −1.1 Fold change | Fold change ceruloplasmin isoform 1 precursor [3, 13]: 3.0 Fold change | Fold change fibronectin precursor [3, 13]: 1.4 Fold change | Differentially expressed miRNA [4]: 16 | Downregulated miRNA [4]: 4 | Upregulated miRNA [4]: 12 | Differentially expressed genes [5]: 506 | Fibrosis score in the DrugMatrix study [6]: scored fibrosis-positive

Brc1ccccc1 [bromobenzene]
Tgfb1 gene expression by qPCR [1, 10]: not significantly affected at any dose; also recorded: slight, statistically insignificant increase | Psma5 expression [7]: 2.2±0.8 fold vehicle control

ClC(Cl)(Cl)Cl [carbon tetrachloride]
Tgfb1 gene expression by qPCR [1, 10]: insignificant | Tgfb1 gene expression by qPCR ([1]; liver, across dose groups, vs control, listed as Carbon tetrachloride): not significantly upregulated at any dose

C[C@@H]1C[C@H]2[C@@H]3CCC4=CC(=O)C=C[C@]4(C)[C@@]3(F)[C@@H](O)C[C@]2(C)[C@@]1(O)C(=O)CO [dexamethasone]
Tgfb1 gene expression by qPCR ([1]; 44.8 mg/kg): the difference was not statistically significant | Tgfb1 gene expression by qPCR ([1]; 1, 6.7, or 300 mg/kg): significantly downregulated | Tgfb1 gene expression by qPCR [1, 10]: decreased gene expression | Lipemia (plasma appearance) [8]: resulted in lipemia (milky white plasma) | Panel genes downregulated (and upregulated in fibrogenic chemical-dose groups) [9]: 12 genes | Pcolce expression levels compared with fibrogenic compounds [9]: anti-correlated with corresponding gene expression levels induced by 4,4′-methylenedianiline and allyl alcohol
